“Also recorded” adds a separate entry of the source.
Tested on: superoxide dismutase (SOD1)
Test: SOD1 expression in rat epidermis after sciatic nerve injury, Western immunoblotting
Type: in vivo
Details: 8-AG 5 mg/kg/day in drinking water
Description: Animals. This study employed female Harlan Sprague Dawley (HSD) rats (3-4 mo; Envigo, Indianapolis, IN) and were divided into the following groups: 1) Control, 2) Sciatic nerve crush (day 0, sacrifice on day 6); 3) 8-aminoguanine (8-AG; 5 mg/kg/day in drinking water; beginning 2 weeks prior to nerve crush and continuing until sacrifice (day 6)). The dose of 8-AG is based on the work above and published experiments. Further, the water consumption/day was tracked. […] All tissues (hindpaw epidermis) were removed from isoflurane anesthetized rats and the tissue was used for various experimental approaches as described below. At the end of tissue removal, animals were sacrificed by thoracotomy. […]

Nc1nc2[nH]c(N)nc2c(=O)[nH]1 [8-AG, 8-Aminoguanine]
effect on sciatic nerve injury-induced decrease in SOD1 expression: restored to control values; also recorded: normalized
effect on sciatic nerve injury-induced decrease in SOD1 expression (listed as 8-Aminoguanine): normalized
